Laboratory results taken from patent EP0577932A2, “Development of a mechanism-based screen to identify androgen receptor agonists and antagonists” (AMERICAN CYANAMID COMPANY, priority 1992, dated 1994).

Target: T1, mouse androgen receptor (Mus musculus, UniProt P19091)
T1 sequence (P19091 1-899): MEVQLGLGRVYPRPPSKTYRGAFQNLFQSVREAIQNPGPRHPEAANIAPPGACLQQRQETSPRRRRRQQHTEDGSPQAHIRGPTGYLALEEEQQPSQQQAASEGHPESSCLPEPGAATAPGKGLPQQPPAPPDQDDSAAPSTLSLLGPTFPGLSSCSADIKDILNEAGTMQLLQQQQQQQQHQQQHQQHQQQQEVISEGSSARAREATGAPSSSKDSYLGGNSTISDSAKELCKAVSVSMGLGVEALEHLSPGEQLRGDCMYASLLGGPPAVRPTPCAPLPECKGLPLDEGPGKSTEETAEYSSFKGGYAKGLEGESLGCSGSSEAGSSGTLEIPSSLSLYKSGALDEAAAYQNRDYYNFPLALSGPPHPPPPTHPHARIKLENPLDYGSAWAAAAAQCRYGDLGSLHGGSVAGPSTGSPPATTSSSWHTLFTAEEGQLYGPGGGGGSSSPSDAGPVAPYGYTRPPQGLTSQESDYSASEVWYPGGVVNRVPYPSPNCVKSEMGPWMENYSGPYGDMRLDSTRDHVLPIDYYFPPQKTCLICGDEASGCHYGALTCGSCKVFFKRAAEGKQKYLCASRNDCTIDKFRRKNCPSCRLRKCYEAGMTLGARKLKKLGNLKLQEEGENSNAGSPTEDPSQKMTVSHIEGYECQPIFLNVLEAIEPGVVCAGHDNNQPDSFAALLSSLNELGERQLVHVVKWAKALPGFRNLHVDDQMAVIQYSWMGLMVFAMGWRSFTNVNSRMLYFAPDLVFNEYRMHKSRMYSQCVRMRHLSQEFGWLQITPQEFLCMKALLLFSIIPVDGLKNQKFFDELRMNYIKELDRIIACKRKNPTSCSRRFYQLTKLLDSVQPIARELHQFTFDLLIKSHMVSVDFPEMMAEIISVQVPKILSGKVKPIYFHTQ
Conditions: compete for binding sites only at high concentrations
Protocol: Bound and free steroids are separated by dextran-coated charcoal (0.5% Norit A and 0.05% dextran). Specific binding is determined by subtracting non-specific from total binding.

SMILES: CC(C)(O)C(=O)Nc1ccc([N+](=O)[O-])c(C(F)(F)F)c1 [hyroxyl-flutamide]
- affinity for the androgen receptor (in words): lower affinity
